In brackets after ≈: the same amount, converted by molar mass. Like-named read-outs stand apart in the source and are kept apart here.
Legend:
B. subtilis ATCC 6633 [1] = assay: Inhibition zone, paper disk/agar diffusion; type: cell-based; conditions: B. subtilis; Na = no activity
In short: (§1)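 Agar diffusion; IZ diameter in mm. Positive control: norfloxacin.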

C. albicans (ATCC 10231) [2] = assay: Inhibition zone, paper disk/agar diffusion; type: cell-based; conditions: Na = no activity
In short: as §1

E. coli ATCC 25922 [3] = assay: Inhibition zone, paper disk/agar diffusion; type: cell-based; conditions: E. coli; Na = no activity
In short: as §1

E. faecalis ATCC 29212 [4] = assay: Inhibition zone, paper disk/agar diffusion; type: cell-based; conditions: E. faecalis; Na = no activity
In short: as §1

[5] = tested on: F. oxysporum (RCMB 008002); assay: Inhibition zone, paper disk/agar diffusion; type: cell-based; conditions: Na = no activity
In short: as §1

P. aeruginosa ATCC 27853 [6] = assay: Inhibition zone, paper disk/agar diffusion; type: cell-based; conditions: P. aeruginosa; Na = no activity
In short: as §1

S. aureus ATCC 29213 [7] = assay: Inhibition zone, paper disk/agar diffusion; type: cell-based; conditions: S. aureus; Na = no activity
In short: as §1

S. typhi ATCC 6539 = assay: Inhibition zone, paper disk/agar diffusion; type: cell-based; conditions: S. typhi; Na = no activity
In short: as §1

B. subtilis ATCC 6633 [8] = assay: MIC and MBC determination; type: cell-based; conditions: B. subtilis
S. aureus ATCC 29213 [9] = assay: MIC and MBC determination; type: cell-based; conditions: S. aureus
E. faecalis ATCC 29212 [10] = assay: MIC and MBC determination; type: cell-based; conditions: E. faecalis
E. coli ATCC 25922 [11] = assay: MIC and MBC determination; type: cell-based; conditions: E. coli
P. aeruginosa ATCC 27853 [12] = assay: MIC and MBC determination; type: cell-based; conditions: Pseudomonas aeruginosa, ATCC27853, P. aeruginosa
[13] = tested on: Salmonella typhi (S. typhi ATCC 6539); assay: microbe, parasite or virus in culture; type: cell-based; conditions: Salmonella enterica, Salmonella typhi
C. albicans (ATCC 10231) [14] = assay: MIC and MFC determination; type: cell-based
[15] = tested on: F. oxysporum (RCMB 008002); assay: MIC and MFC determination; type: cell-based
E. coli ATCC BAA-196 [16] = assay: Inhibition zone against multidrug-resistant bacteria; type: cell-based; conditions: MDRB E. coli ATCC BAA-196
Source text: (§2) Norfloxacin was used as a positive control for the multidrug resistance study.
(§3) The antimicrobial activity performed at the bacteriology laboratory, Botany and Microbiology Department, Faculty of Science, Al-Azhar University, Cairo, Egypt. The inhibition zone (IZ) of the tested derivatives expressed as the diameter (mm) according to the agar plate diffusion method.

[17] = tested on: P. aeruginosa ATCC BAA-2111; assay: as above; type: cell-based; conditions: MDRB P. aeruginosa ATCC BAA-2111
Source text: as §2, §3

S. aureus ATCC 33591 [18] = assay: as above; type: cell-based; conditions: MDRB S. aureus ATCC 33591
Source text: as §2, §3

S. aureus ATCC 43300 [19] = assay: as above; type: cell-based; conditions: MDRB S. aureus ATCC 43300
Source text: as §2, §3

E. coli ATCC BAA-196 [20] = assay: MIC and MBC against multidrug-resistant strains; type: cell-based; conditions: Escherichia coli, ATCCBAA196, E. coli ATCC BAA-196
Source text: as §2
(§4) The experiment was repeating for three-times.

[21] = tested on: P. aeruginosa ATCC BAA-2111; assay: MIC and MBC against multidrug-resistant strains; type: cell-based; conditions: P. aeruginosa ATCC BAA-2111
Source text: as §2, §4

S. aureus ATCC 33591 [22] = assay: MIC and MBC against multidrug-resistant strains; type: cell-based; conditions: Staphylococcus aureus, ATCC33591, S. aureus ATCC 33591
Source text: as §2, §4

S. aureus ATCC 43300 [23] = assay: MIC and MBC against multidrug-resistant strains; type: cell-based; conditions: Staphylococcus aureus, ATCC43300, S. aureus ATCC 43300
Source text: as §2, §4

S. aureus DNA gyrase = S. aureus DNA gyrase (Staphylococcus aureus, UniProt P0A0K8+P20831); assay: In vitro DNA gyrase supercoiling enzymatic assay; type: biochemical
[24] = molecular target: E. coli DHFR (dihydrofolate reductase) (Escherichia coli, UniProt P0ABQ4); assay: In vitro DHFR enzymatic assay; type: biochemical
MDRB strains = assay: MIC and MBC, ranges over the MDRB panel; type: cell-based; conditions: four MDRB strains
Source text: as §2, §4

Chain of S. aureus DNA gyrase (P20831 whole entry): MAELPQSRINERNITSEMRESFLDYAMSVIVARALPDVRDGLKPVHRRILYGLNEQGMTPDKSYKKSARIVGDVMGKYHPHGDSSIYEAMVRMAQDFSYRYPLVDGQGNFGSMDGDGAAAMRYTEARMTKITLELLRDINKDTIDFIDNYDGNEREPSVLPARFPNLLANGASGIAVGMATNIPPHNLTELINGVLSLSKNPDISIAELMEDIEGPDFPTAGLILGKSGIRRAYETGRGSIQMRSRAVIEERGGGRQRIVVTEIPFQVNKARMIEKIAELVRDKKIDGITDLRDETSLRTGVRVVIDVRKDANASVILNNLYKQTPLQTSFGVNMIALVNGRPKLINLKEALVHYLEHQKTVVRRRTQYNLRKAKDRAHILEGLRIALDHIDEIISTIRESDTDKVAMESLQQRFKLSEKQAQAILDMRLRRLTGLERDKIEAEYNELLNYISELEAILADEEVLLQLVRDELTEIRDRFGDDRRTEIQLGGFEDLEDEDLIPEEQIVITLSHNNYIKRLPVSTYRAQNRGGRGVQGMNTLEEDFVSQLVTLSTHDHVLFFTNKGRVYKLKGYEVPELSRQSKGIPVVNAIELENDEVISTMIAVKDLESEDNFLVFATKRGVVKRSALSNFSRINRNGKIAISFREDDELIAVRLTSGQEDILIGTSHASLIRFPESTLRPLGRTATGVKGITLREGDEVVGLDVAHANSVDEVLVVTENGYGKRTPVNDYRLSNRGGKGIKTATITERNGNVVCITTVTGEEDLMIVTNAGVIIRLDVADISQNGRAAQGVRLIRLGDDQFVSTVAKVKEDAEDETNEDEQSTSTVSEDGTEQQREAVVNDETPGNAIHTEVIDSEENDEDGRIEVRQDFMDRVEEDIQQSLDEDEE
Chain of S. aureus DNA gyrase (P0A0K8 whole entry): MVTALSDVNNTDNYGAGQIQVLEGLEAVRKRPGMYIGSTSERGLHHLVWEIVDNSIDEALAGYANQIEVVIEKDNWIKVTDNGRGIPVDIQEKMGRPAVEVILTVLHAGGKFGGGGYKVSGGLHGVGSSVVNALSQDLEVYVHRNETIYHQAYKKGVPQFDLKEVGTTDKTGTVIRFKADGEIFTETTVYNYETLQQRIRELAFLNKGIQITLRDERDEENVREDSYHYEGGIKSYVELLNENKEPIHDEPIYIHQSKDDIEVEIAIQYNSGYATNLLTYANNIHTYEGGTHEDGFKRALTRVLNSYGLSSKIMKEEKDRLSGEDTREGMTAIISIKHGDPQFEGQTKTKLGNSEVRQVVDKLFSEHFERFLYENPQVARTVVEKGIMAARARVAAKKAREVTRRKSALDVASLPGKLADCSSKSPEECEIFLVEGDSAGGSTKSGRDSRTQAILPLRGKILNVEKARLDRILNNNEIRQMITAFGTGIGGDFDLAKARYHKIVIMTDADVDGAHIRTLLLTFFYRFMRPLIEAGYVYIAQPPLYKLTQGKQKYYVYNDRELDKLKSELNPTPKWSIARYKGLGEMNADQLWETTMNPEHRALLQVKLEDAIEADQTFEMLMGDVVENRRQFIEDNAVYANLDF
Chain of E. coli DHFR (dihydrofolate reductase) (P0ABQ4 whole entry): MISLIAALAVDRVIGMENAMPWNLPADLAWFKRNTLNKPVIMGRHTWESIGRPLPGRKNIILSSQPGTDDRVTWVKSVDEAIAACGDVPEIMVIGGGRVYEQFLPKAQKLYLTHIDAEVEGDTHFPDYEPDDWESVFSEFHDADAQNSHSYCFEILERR

Question: How did the “Mean Diameter of the Inhibition Zone” value (B. subtilis ATCC 6633 [1]) turn out when `N#Cc1c(-c2ccc(Cl)cc2)c(C#N)c(=O)n(-c2ccc(S(=O)(=O)NC(=N)N)cc2)c1N` [Compound 3a, 4-(6-Amino-4-(4-chlorophenyl)-3,5-dicyano-2-oxopyridin-1(2H)-yl)-N-carbamimidoylbenzenesulfonamide] was run?
Answer: 31 ± 0.40 mm

Question: What about the “Mean Diameter of the Inhibition Zone” value (C. albicans (ATCC 10231) [2]) of the same compound?
Answer: 22 ± 0.35 mm

Question: And the “Mean Diameter of the Inhibition Zone” value (E. coli ATCC 25922 [3])?
Answer: 24 ± 0.20 mm

Question: And the “Mean Diameter of the Inhibition Zone” value (E. faecalis ATCC 29212 [4])?
Answer: 21 ± 0.11 mm

Question: What about the “Mean Diameter of the Inhibition Zone” value [5] of the same compound?
Answer: 21 ± 0.30 mm

Question: What about the “Mean Diameter of the Inhibition Zone” value (P. aeruginosa ATCC 27853 [6]) of the same compound?
Answer: 20 ± 0.15 mm

Question: And the “Mean Diameter of the Inhibition Zone” value (S. aureus ATCC 29213 [7])?
Answer: 25 ± 0.31 mm

Question: What about the “Mean Diameter of the Inhibition Zone” value (S. typhi ATCC 6539) of the same compound?
Answer: 18 ± 0.16 mm

Question: What about the MBC (B. subtilis ATCC 6633 [8]) of the same compound?
Answer: 19.6 ± 0.65 µM (≈ 9.17 µg/mL)

Question: What about the MIC (B. subtilis ATCC 6633 [8]) of the same compound?
Answer: 9.61 ± 1.65 µM (≈ 4.5 µg/mL)

Question: And the MBC (B. subtilis ATCC 6633 [8]; Bacillus subtilis, ATCC6633, read-out: MBC)?
Answer: 19.6 µM (≈ 9.17 µg/mL)

Question: And the MIC (B. subtilis ATCC 6633 [8]; Bacillus subtilis, ATCC6633, read-out: MIC)?
Answer: 9.61 µM (≈ 4.5 µg/mL)

Question: What about the MBC (S. aureus ATCC 29213 [9]) of the same compound?
Answer: 33.38 ± 0.65 µM (≈ 15.6 µg/mL)

Question: And the MIC (S. aureus ATCC 29213 [9])?
Answer: 16.69 ± 0.87 µM (≈ 7.81 µg/mL)

Question: What about the MBC (S. aureus ATCC 29213 [9]; Staphylococcus aureus, ATCC29213, read-out: MBC) of the same compound?
Answer: 33.4 µM (≈ 15.6 µg/mL)

Question: And the MIC (S. aureus ATCC 29213 [9]; Staphylococcus aureus, ATCC29213, read-out: MIC)?
Answer: 16.7 µM (≈ 7.81 µg/mL)

Question: And the MBC (E. faecalis ATCC 29212 [10])?
Answer: 15.83 ± 0.47 µM (≈ 7.41 µg/mL)

Question: And the MIC (E. faecalis ATCC 29212 [10])?
Answer: 8.33 ± 0.36 µM (≈ 3.9 µg/mL)

Question: And the MBC (E. faecalis ATCC 29212 [10]; Enterococcus faecalis, ATCC29212, read-out: MBC)?
Answer: 15.8 µM (≈ 7.41 µg/mL)

Question: What about the MIC (E. faecalis ATCC 29212 [10]; Enterococcus faecalis, ATCC29212, read-out: MIC) of the same compound?
Answer: 8.33 µM (≈ 3.9 µg/mL)

Question: And the MBC (E. coli ATCC 25922 [11])?
Answer: 30.02 ± 0.52 µM (≈ 14 µg/mL)

Question: What about the MIC (E. coli ATCC 25922 [11]) of the same compound?
Answer: 16.69 ± 0.84 µM (≈ 7.81 µg/mL)

Question: And the MBC (E. coli ATCC 25922 [11]; Escherichia coli, ATCC25922, read-out: MBC)?
Answer: 30 µM (≈ 14 µg/mL)

Question: And the MIC (E. coli ATCC 25922 [11]; Escherichia coli, ATCC25922, read-out: MIC)?
Answer: 16.7 µM (≈ 7.81 µg/mL)

Question: What about the MBC (P. aeruginosa ATCC 27853 [12]; read-out: MBC) of the same compound?
Answer: 66.8 ± 0.87 µM (≈ 31.2 µg/mL)

Question: What about the MIC (P. aeruginosa ATCC 27853 [12]; read-out: MIC) of the same compound?
Answer: 33.4 ± 0.35 µM (≈ 15.6 µg/mL)

Question: And the MBC ([13]; read-out: MBC)?
Answer: 22.6 ± 0.32 µM (≈ 10.6 µg/mL)

Question: And the MIC ([13]; read-out: MIC)?
Answer: 11.9 ± 0.62 µM (≈ 5.57 µg/mL)

Question: What about the MFC (C. albicans (ATCC 10231) [14]) of the same compound?
Answer: 26.69 ± 0.54 µM (≈ 12.5 µg/mL)

Question: What about the MFC/MIC (C. albicans (ATCC 10231) [14]) of the same compound?
Answer: <2

Question: What about the MIC (C. albicans (ATCC 10231) [14]) of the same compound?
Answer: 16.69 ± 0.75 µM (≈ 7.81 µg/mL)

Question: And the MFC (C. albicans (ATCC 10231) [14]; Candida albicans, ATCC10231, read-out: MFC)?
Answer: 26.7 µM (≈ 12.5 µg/mL)

Question: What about the MIC (C. albicans (ATCC 10231) [14]; Candida albicans, ATCC10231, read-out: MIC) of the same compound?
Answer: 16.7 µM (≈ 7.81 µg/mL)

Question: What about the MFC [15] of the same compound?
Answer: 56.74 ± 0.98 µM (≈ 26.5 µg/mL)

Question: What about the MFC/MIC [15] of the same compound?
Answer: <2

Question: What about the MIC [15] of the same compound?
Answer: 33.38 ± 0.74 µM (≈ 15.6 µg/mL)

Question: And the MFC ([15]; Fusarium oxysporum, RCMB008002, read-out: MFC)?
Answer: 56.7 µM (≈ 26.5 µg/mL)

Question: And the MIC ([15]; Fusarium oxysporum, RCMB008002, read-out: MIC)?
Answer: 33.4 µM (≈ 15.6 µg/mL)

Question: What about the “Mean Diameter of Inhibition Zone” value (E. coli ATCC BAA-196 [16]) of the same compound?
Answer: 22 ± 0.23 mm

Question: And the “Mean Diameter of Inhibition Zone” value [17]?
Answer: 24 ± 0.22 mm

Question: And the “Mean Diameter of Inhibition Zone” value (S. aureus ATCC 33591 [18])?
Answer: 23 ± 0.47 mm

Question: And the “Mean Diameter of Inhibition Zone” value (S. aureus ATCC 43300 [19])?
Answer: 25 ± 0.4 mm

Question: What about the MBC (E. coli ATCC BAA-196 [20]; read-out: MBC) of the same compound?
Answer: 33.4 ± 0.84 µM (≈ 15.6 µg/mL)

Question: What about the MIC (E. coli ATCC BAA-196 [20]; read-out: MIC) of the same compound?
Answer: 16.7 ± 0.41 µM (≈ 7.81 µg/mL)

Question: And the MBC [21]?
Answer: 14.23 ± 0.65 µM (≈ 6.66 µg/mL)

Question: What about the MIC [21] of the same compound?
Answer: 9.48 ± 0.54 µM (≈ 4.44 µg/mL)

Question: What about the MBC ([21]; Pseudomonas aeruginosa, ATCCBAA2111, read-out: MBC) of the same compound?
Answer: 14.2 µM (≈ 6.66 µg/mL)

Question: What about the MIC ([21]; Pseudomonas aeruginosa, ATCCBAA2111, read-out: MIC) of the same compound?
Answer: 9.48 µM (≈ 4.44 µg/mL)

Question: What about the MBC (S. aureus ATCC 33591 [22]; read-out: MBC) of the same compound?
Answer: 23.7 ± 0.28 µM (≈ 11.1 µg/mL)

Question: What about the MIC (S. aureus ATCC 33591 [22]; read-out: MIC) of the same compound?
Answer: 11.8 ± 0.24 µM (≈ 5.54 µg/mL)

Question: What about the MBC (S. aureus ATCC 43300 [23]; read-out: MBC) of the same compound?
Answer: 16.3 ± 0.36 µM (≈ 7.61 µg/mL)

Question: And the MIC (S. aureus ATCC 43300 [23]; read-out: MIC)?
Answer: 8.33 ± 0.29 µM (≈ 3.9 µg/mL)

Question: And the IC50 (S. aureus DNA gyrase)?
Answer: 22 ± 1.35 µM

Question: What about the “fold potency relative to ciprofloxacin” value (S. aureus DNA gyrase; S. aureus DNA gyrase IC50) of the same compound?
Answer: ~1.19 fold

Question: What about the IC50 [24] of the same compound?
Answer: 5.44 ± 0.95 µM

Question: And the “fold relative to trimethoprim” value ([24]; E. coli DHFR IC50)?
Answer: 0.94 fold

Question: What about the MBC range (MDRB strains) of the same compound?
Answer: 14.23 to 33.38 µM

Question: And the MIC range (MDRB strains)?
Answer: 8.33 to 16.69 µM

From article PMC7915026, “Sulfaguanidine Hybrid with Some New Pyridine-2-One Derivatives: Design, Synthesis, and Antimicrobial Activity against Multidrug-Resistant Bacteria as Dual DNA Gyrase and DHFR Inhibitors” (Antibiotics, 2021)
